According to patent US6884597B1, “Method for detecting acetyltransferase and deacetylase activities and method for screening inhibitors or enhancers of these enzymes” (Medical & Biological Laboratories, Co., Ltd., priority 1998, dated 2005):

How the values were obtained:
histone deacetylase = test: Detection of change in acetylation of histone in cells with anti-acetylated lysine antibody (cell ELISA); format: cell-based, human; settings: Hela cells, 8 hours
Description: Hela cells were spread onto a 96-well plate for cell culture by adjusting 2500 cells per well (culture medium was DMEM, 200 μl thereof was used per well), and cultured at 37° C. overnight in a 5% CO2 incubator to tightly attach the cells onto the plate. • 3. Treatment with known Inhibitors for Histone Deacetylase […]
The medium was aspirated from each well without touching the cells, and each well was washed with 200 μl of PBS three times. After washing, 200 μl of 100% methanol cooled at −20° C. in advance was added to each well, left at room temperature for 5 min to fix the cells. […] was completely aspirated and dried.
The anti-acetylated lysine residue antibody was diluted to 0.5 μg/ml with the antibody dilution buffer and 100 μl thereof was added to each washed well, and left at 30° C. for 1 hour (the first reaction). After the first reaction, each well was washed with the washing buffer in the same manner, and 100 μl of goat anti-rabbit Ig (H+L) horse radish peroxidase label (MBL) diluted 2000 folds with the antibody dilution buffer was added to each well, and left at 30° C. for 1 hour (the second reaction). Each well was washed with washing buffer, and 100 μl of horse radish peroxidase substrate solution was added to each well and incubated at 30° C. for 30 min for the coloring reaction. 100 μl of the 1.5 N phosphate solution was added thereto to terminate the coloring reaction. Absorbance at 450 nm was measured using a microtiter plate reader.
As a result, an increase of absorbance was observed depending on the concentration of the deacetylase inhibitors (FIGS. 13 and 14, and Tables 1 and 2). In this measurement, a stronger inhibition of deacetylation of histone in cells accompanies a larger degree of acetylation of histone, and absorbance was increased depending on the increase in the concentration of antigen (an acetylated histone). Therefore, an inhibition of the deacetylase activity correlates to an increase of absorbance.

CMV promoter = CMV promoter activity in pcDNA3-GFP-harboring CHO cells detected using the GFP reporter gene; format: cell-based; settings: 8 hours
Description: A plasmid vector (pcDNA3-GFP), in which GFP gene was introduced into a multicloning site immediately downstream of CMV promoter in pcDNA3 expression vector for mammalian cells in the forward direction was prepared by the standard method using E. coli. • 2. Introduction of the Plasmid Vector into Cells and Screening of Plasmid-Harboring Cells
pcDNA3-GFP was introduced into CHO cells by the lipofection method, and cultured for 24 hours at 37° C. in a 5% CO2 incubator (4 ml of DMEM was used as a culture medium per 6 cm-plate). Neomycin, an antibiotic, the resistance gene of which is carried on pcDNA3 plasmid, was added to the medium, and cultured for 2 weeks to select cells harboring pcDNA3-GFP. During this screening, the medium was replaced with a new one containing neomycin every four days. • 3. Screening of the Plasmid-Harboring Cells in which the Promoter Activity is Inhibited
The clones of the screened cells were transferred to separate plates and cultured. […] Several clones in which emission of the product of the GFP gene ligated downstream of CMV promoter was weak or was hardly detected were selected.
These cells were spread onto a 96-well plate for cell culture, adjusted to about 2500 cells per well (200 μl of DMEM was used as the culture medium per well), and cultured overnight (about 10 to 20 hours) at 37° C. in a 5% CO2 incubator to tightly attach the cells onto the plate. […]
The amount of GFP proteins expressing in cells in each well of the treated 96-well plate was measured with a fluorescent multiplate reader as change of fluorescence intensity.
As a result, an increase of florescence intensity was observed depending on the concentration of the deacetylase inhibitors (FIGS. 15, 16 and Tables 3 and 4).

Sub p53-1 = target: T1, Sub p53-1
T1 chain: STSRHKKLMFKTE

Sub p53-2 = target: T2, Sub p53-2
T2 chain: SHLKSKKGQSTSR

[1] = test system: sub p53-1 and sub p53-2 peptides; test: ELISA system for measuring the acetyltransferase activity (liquid and solid phase); format: biochemical, human; settings: 0 to 10 μg/ml; liquid and solid phases; depending on the concentration; FIGS. 9 and 10
Description: Two peptide substrates “Sub p53-1” (SEQ ID NO: 13/Bio-STSRHKKLMFKTE) and “Sub p53-2” (SEQ ID NO: 14/Bio-SHLKSKKGQSTSR) comprising the 373rd and 382nd lysine residues of the amino acid sequence of human p53, respectively, reported as an acetylation sites of acetyltransferase, were prepared by a peptide synthesizer. Amino acids in the peptide are shown in one-letter codes, and “Bio” at the amino ends means biotin. Ninety percent or higher purity was confirmed by HPLC. “Sub p53-1” and “Sub-p53-2” were composed of amino acids 376 to 388 and amino acids 367 to 379, respectively. […] The amplified PCR product was subcloned to pGEX, expressed as a fusion with GST, and purified (GST-p53 Cter). • (2) Preparation of a Peptide Substrate, “GST-p53 Cter” and a Streptoavidin Sensitized Plate […]
The synthesized peptide substrates and a recombinant acetyltransferase were reacted in the liquid phase, and the enzyme activity was measured by the ELISA system using a microtiter plate. […] 100 μl of 1.5 N phosphate solution were added to terminate the coloring reaction, and absorbance at 450 nm was measured using a microtiter plate reader. • Solid Phase Analysis System (Refer to FIG. 2) […]

Molecule: CCCC(=O)O [S. B., butyric acid]
- Absorbance at 450 nm (histone deacetylase; S. B. concentration 0.012 mM): 0.091
- Absorbance at 450 nm (histone deacetylase; S. B. concentration 0.049 mM): 0.077
- Absorbance at 450 nm (histone deacetylase; S. B. concentration 0.195 mM): 0.097
- Absorbance at 450 nm (histone deacetylase; S. B. concentration 0.78 mM): 0.136
- Absorbance at 450 nm (histone deacetylase; S. B. concentration 3.13 mM): 0.306
- Absorbance at 450 nm (histone deacetylase; S. B. concentration 12.5 mM): 0.551
- Absorbance at 450 nm (histone deacetylase; S. B. concentration 50 mM): 0.545
- Relative fluorescence intensity (%) (CMV promoter; S. B. concentration 0.012 mM): 8.5%
- Relative fluorescence intensity (%) (CMV promoter; S. B. concentration 0.049 mM): 7.8%
- Relative fluorescence intensity (%) (CMV promoter; S. B. concentration 0.195 mM): 13.3%
- Relative fluorescence intensity (%) (CMV promoter; S. B. concentration 0.78 mM): 15.7%
- Relative fluorescence intensity (%) (CMV promoter; S. B. concentration 3.13 mM): 50.3%
- Relative fluorescence intensity (%) (CMV promoter; S. B. concentration 12.5 mM): 98.5%
- Relative fluorescence intensity (%) (CMV promoter; S. B. concentration 50 mM): 100%

Molecule: CC(/C=C/C(=O)NO)=C\[C@@H](C)C(=O)c1ccc(N(C)C)cc1 [TSA, trichostatin A]
- Absorbance at 450 nm (histone deacetylase; TSA concentration 0.5 nM): 0.056
- Absorbance at 450 nm (histone deacetylase; TSA concentration 1.95 nM): 0.056
- Absorbance at 450 nm (histone deacetylase; TSA concentration 7.8 nM): 0.041
- Absorbance at 450 nm (histone deacetylase; TSA concentration 31.3 nM): 0.071
- Absorbance at 450 nm (histone deacetylase; TSA concentration 125 nM): 0.095
- Absorbance at 450 nm (histone deacetylase; TSA concentration 500 nM): 0.278
- Absorbance at 450 nm (histone deacetylase; TSA concentration 2000 nM): 0.476
- Relative fluorescence intensity (%) (CMV promoter; TSA concentration 0.5 nM): 2.2%
- Relative fluorescence intensity (%) (CMV promoter; TSA concentration 1.95 nM): 1.8%
- Relative fluorescence intensity (%) (CMV promoter; TSA concentration 7.8 nM): 5.1%
- Relative fluorescence intensity (%) (CMV promoter; TSA concentration 31.3 nM): 12.3%
- Relative fluorescence intensity (%) (CMV promoter; TSA concentration 125 nM): 34.2%
- Relative fluorescence intensity (%) (CMV promoter; TSA concentration 500 nM): 73.1%
- Relative fluorescence intensity (%) (CMV promoter; TSA concentration 2000 nM): 100%

B1: recombinant CBP (protein)
chain: QNRYHFCEKCFTEIQGENVTLGDDPSQPQTTISKDQFEKKKNDTLDPEPFVDCKECGRKMHQICVLHYDIIWPSGFVCDNCLKKTGRPRKENKFSAKRLQTTRLGNHLEDRVNKFLRRQNHPEAGEVFVRVVASSDKTVEVKPGMKSRFVDSGEMSESFPYRTKALFAFEEIDGVDVCFFGMHVQEYGSDCPPPNTRRVYISYLDSIHFFRPRCLRTAVYHEILIGYLEYVKKLGYVTGHIWACPPSEGDDYIFHCHPPDQKIPKPKRLQEWYKKMLDKAFAERIIHDYKDIFKQATEDRLTSAKELPYFEGDFWPNVLEESIKELEQEEEERKKEESTAASETTEGSQGDSKNAKKKNNKKTNKNKSSISRANKKKPSMPNVSNDLSQKLYATMEKHKEVFFVIHLHAGPVINTLPPIVDPDPLLSCDLMDGRDAFLTLARDKHWEFSSLRRSKWSTLCMLVELHTQGQDRFVYTCNEC
- acetyltransferase activity (ELISA with anti-acetylated peptide antibody, absorbance at 450 nm; liquid and solid phase) (Sub p53-1): the acetyltransferase activities to "subp53-1" and "sub p53-2" peptides depending on the concentration of CBP were detected
- acetyltransferase activity (ELISA with anti-acetylated peptide antibody, absorbance at 450 nm; liquid and solid phase) (Sub p53-2): the acetyltransferase activities to "subp53-1" and "sub p53-2" peptides depending on the concentration of CBP were detected
- acetyltransferase activities to sub p53-1 and sub p53-2 peptides [1]: detected
